# Where “and” joins values, the source holds several entries; their conditions need not be identical. Equal values may be shown once. After the bases stand the sugars from the 5' end (letter, count) and the backbone: PS all phosphorothioate, else s phosphorothioate and o phosphodiester by linkage. Methylation of C is not given here. e = 2'-O-(2-methoxyethyl) (MOE); k = constrained ethyl (cEt); d = 2'-deoxy (DNA); m = 2'-O-methyl
# Molecular target: HSD17B13
# Conditions: ASO, HepaRG
Sequence,target mRNA inhibition (1 µM),other results
"CCATGGATCTAGAACA (sugars k3 d10 k3, PS)",15%,–
"CCATTTACATATGGTG (sugars k3 d10 k3, PS)",28%,–
"CCCAAAAATGTCCTAG (sugars k3 d10 k3, PS)",18%,–
"CCCAAGCTACCTCCAA (sugars k3 d10 k3, PS)",15%,–
"CCCAAGGCCTGAAGTT (sugars k3 d10 k3, PS)",61%,–
"CCCAATTATGAATCTG (sugars k3 d10 k3, PS)",62%,–
"CCCTTTATGTCTTTGG (sugars k3 d10 k3, PS)",35%,–
"CCGAAAAAAGTGGAGG (sugars k3 d10 k3, PS)",31%,–
"CCGTTATAAGTTTCAT (sugars k3 d10 k3, PS)",54%,–
"CCTAAACAAACACTAT (sugars k3 d10 k3, PS)",8%,–
"CCTACCAAGAGGGTTT (sugars k3 d10 k3, PS)",34%,–
"CCTAGATTCTACACTA (sugars k3 d10 k3, PS)",14%,–
"CCTAGGATGTTGACCT (sugars k3 d10 k3, PS)",3%,–
"CCTAGGGAGGAGGTAC (sugars k3 d10 k3, PS)",34%,–
"CCTATATACATCCAAG (sugars k3 d10 k3, PS)",53%,–
"CCTATGCAAATTCATA (sugars k3 d10 k3, PS)",34%,–
"CCTATTTGTAATATTG (sugars k3 d10 k3, PS)",0%,–
"CCTCAAATGAGGCGGC (sugars k3 d10 k3, PS)",47%,–
"CCTGAAAAGCCCTATT (sugars k3 d10 k3, PS)",0%,–
"CCTTACTAAGGAAATT (sugars k3 d10 k3, PS)",28%,–
"CCTTAGAGTGAATCAT (sugars k3 d10 k3, PS)",65%,–
"CCTTGTGTAGTCCTAG (sugars k3 d10 k3, PS)",67%,target mRNA inhibition (0.02 µM): 4%; target mRNA inhibition (0.078 µM): 28%; target mRNA inhibition (0.313 µM): 44%; target mRNA inhibition (1.25 µM): 72%; target mRNA inhibition (5 µM): 85%
"CGATAGATCTCTTCTC (sugars k3 d10 k3, PS)",15%,–
"CGCAACAGTTTAGATT (sugars k3 d10 k3, PS)",57%,–
"CGCACACTGAAGCCAC (sugars k3 d10 k3, PS)",56%,–

Sequence,target mRNA inhibition (1 µM),other results
"CGCTACTGTAGGCTAA (sugars k3 d10 k3, PS)",68%,–
"CGGCAAATTTGCTGGA (sugars k3 d10 k3, PS)",29%,–
"CGGTCACCTTTCATAA (sugars k3 d10 k3, PS)",69%,–
"CGTTATAAGTTTCATG (sugars k3 d10 k3, PS)",33%,–
"CGTTTGACTGCTGCTA (sugars k3 d9 k3 e1, PS)",75% and 50%,target mRNA inhibition (0.02 µM): 4%; target mRNA inhibition (0.078 µM): 17%; target mRNA inhibition (0.313 µM): 34%; target mRNA inhibition (1.25 µM): 57%; target mRNA inhibition (5 µM): 66%
"CGTTTTGGGCTAATGA (sugars k3 d10 k3, PS)",48%,–
"CTAAAATTGTCTAAAC (sugars kkdddddddddkekek, PS)",19%,–
"CTAAACATCTCTGGGA (sugars k3 d9 k3 e1, PS)",57%,–
"CTAACCAATTATATGA (sugars k3 d10 k3, PS)",21%,–
"CTAAGTAGTAATTCTA (sugars k3 d10 k3, PS)",35%,–
"CTAATAACTACATGAC (sugars k3 d10 k3, PS)",18%,–
"CTACAAGAGGTTATTT (sugars k3 d10 k3, PS)",31%,–
"CTACAGAGGAGTTTGC (sugars k3 d10 k3, PS)",27%,–
"CTACCACATACGCATG (sugars k3 d10 k3, PS)",25%,–
"CTACCTCCAAATTCCC (sugars k3 d10 k3, PS)",27%,–
"CTACTTGAACAGTCTT (sugars k3 d9 k3 e1, PS)",71%,–
"CTACTTGAACAGTCTT (sugars k3 d10 k3, PS)",80%,target mRNA inhibition (0.02 µM): 8%; target mRNA inhibition (0.078 µM): 23%; target mRNA inhibition (0.313 µM): 49%; target mRNA inhibition (1.25 µM): 79%; target mRNA inhibition (5 µM): 97%
"CTACTTGAACAGTCTT (sugars kkdddddddddkekek, PS)",47%,–
"CTACTTTCAAACCTTG (sugars k3 d10 k3, PS)",57%,–
"CTAGATACTCAATTTA (sugars k3 d10 k3, PS)",30%,–
"CTAGGAAGTGATCCAT (sugars k3 d10 k3, PS)",66%,–
"CTAGGGAAATCTTTCA (sugars k3 d1 m1 d8 k3, PS)",19%,–
"CTAGTAATTGCATCTG (sugars k3 d10 k3, PS)",57%,–
"CTAGTGCCAAACCAAT (sugars kkdddddddddkekek, PS)",47%,–
"CTAGUGCCAAACCAAT (sugars k3 d1 m1 d8 k3, PS)",45%,–

Sequence,target mRNA inhibition (1 µM),other results
"CTATAATACATTAGCA (sugars k3 d10 k3, PS)",3%,–
"CTATAGTAATCACAAG (sugars k3 d10 k3, PS)",35%,–
"CTATCAACCTGCACAC (sugars k3 d10 k3, PS)",39%,–
"CTATCAGAACAGTTCA (sugars k3 d10 k3, PS)",48%,–
"CTATCTCCCTATTTGT (sugars k3 d10 k3, PS)",15%,–
"CTATGTAATAGGCAGT (sugars k3 d10 k3, PS)",73%,target mRNA inhibition (0.02 µM): 18%; target mRNA inhibition (0.078 µM): 20%; target mRNA inhibition (0.313 µM): 63%; target mRNA inhibition (1.25 µM): 75%; target mRNA inhibition (5 µM): 86%
"CTATTATGCACTCTAT (sugars k3 d10 k3, PS)",32%,–
"CTATTGATTGGCTTAA (sugars k3 d10 k3, PS)",31%,–
"CTATTGTATGAGGTCT (sugars k3 d10 k3, PS)",42%,–
"CTCAAATGAGGCGGCA (sugars k3 d10 k3, PS)",56%,–
"CTCAAATGTCTTGGTA (sugars k3 d10 k3, PS)",29%,–
"CTCAGGCTGTAAGAGT (sugars k3 d1 m1 d8 k3, PS)",46%,–
"CTCAGGCTGTAAGAGT (sugars k3 d9 k3 e1, PS)",21%,–
"CTCCATCATCGATGGA (sugars k3 d10 k3, PS)",0%,–
"CTCCGTGTAGTTTGGT (sugars k3 d10 k3, PS)",28%,–
"CTCTAAATACCCTTGG (sugars k3 d10 k3, PS)",7%,–
"CTCTAATGTTTCTTGA (sugars k3 d10 k3, PS)",53%,–
"CTCTATAAAATCAATC (sugars k3 d10 k3, PS)",0%,–
"CTCTGGGACCAAGGAT (sugars k3 d10 k3, PS)",51%,–
"CTCTTAGCTGTGCACT (sugars kkdddddddddkekek, PS)",56%,–
"CTCTTTTTATAGACTG (sugars k3 d10 k3, PS)",63%,–
"CTGAAATTGATACACC (sugars k3 d9 k3 e1, PS)",75%,target mRNA inhibition (0.02 µM): 0%; target mRNA inhibition (0.078 µM): 17%; target mRNA inhibition (0.313 µM): 51%; target mRNA inhibition (1.25 µM): 61%; target mRNA inhibition (5 µM): 81%
"CTGAGTAAACGACTCT (sugars k3 d10 k3, PS)",33%,–
"CTGATTAATCTTGATG (sugars k3 d10 k3, PS)",32%,–
"CTGATTACAGCATCAA (sugars k3 d10 k3, PS)",40%,–

Sequence,target mRNA inhibition (1 µM),other results
"CTGATTTAGAGAGCGA (sugars k3 d10 k3, PS)",61%,–
"CTGCAAAGTTAATAGG (sugars k3 d10 k3, PS)",57%,–
"CTGCATTAATGCCACC (sugars k3 d1 m1 d8 k3, PS)",52%,–
"CTGCATTAATGCCACC (sugars k3 d10 k3, PS)",67%,target mRNA inhibition (0.02 µM): 0%; target mRNA inhibition (0.078 µM): 0%; target mRNA inhibition (0.313 µM): 17%; target mRNA inhibition (1.25 µM): 40%; target mRNA inhibition (5 µM): 81%
"CTGCCAGATTGCACAA (sugars k3 d10 k3, PS)",44%,–
"CTGCCCTAGATTCTAC (sugars k3 d10 k3, PS)",33%,–
"CTGCGCACATATTTTA (sugars k3 d10 k3, PS)",92%,target mRNA inhibition (0.02 µM): 0%; target mRNA inhibition (0.078 µM): 0%; target mRNA inhibition (0.313 µM): 7%; target mRNA inhibition (1.25 µM): 52%; target mRNA inhibition (5 µM): 74%
"CTGCTAGTGCCAAACC (sugars k3 d9 k3 e1, PS)",67%,–
"CTGCTAGTGCCAAACC (sugars k3 d10 k3, PS)",74%,–
"CTGCTGAAACTTGATC (sugars k3 d10 k3, PS)",50%,–
"CTGGTAAAGGTAAGGG (sugars k3 d10 k3, PS)",58%,–
"CTGTAATTGGCTCTTG (sugars k3 d10 k3, PS)",28%,–
"CTGTAGGCTAAACCCT (sugars k3 d10 k3, PS)",47%,–
"CTGTAGGTTTTGCTTC (sugars k3 d10 k3, PS)",27%,–
"CTGTGCACTCATTCTG (sugars k3 d10 k3, PS)",51%,–
"CTGTGTTAGCTTTAAT (sugars k3 d10 k3, PS)",67%,target mRNA inhibition (0.02 µM): 9%; target mRNA inhibition (0.078 µM): 0%; target mRNA inhibition (0.313 µM): 28%; target mRNA inhibition (1.25 µM): 77%; target mRNA inhibition (5 µM): 92%
"CTTAACAAACCTCCAC (sugars k3 d10 k3, PS)",3%,–
"CTTAAGATACCCAGGT (sugars k3 d1 m1 d8 k3, PS)",50%,–
"CTTAAGATACCCAGGT (sugars k3 d10 k3, PS)",36%,–
"CTTAAGATACCCAGGT (sugars kkdddddddddkekek, PS)",34%,–
"CTTAAGGATCATTGCA (sugars k3 d10 k3, PS)",29%,–
"CTTACCTTGTGCTTGG (sugars k3 d10 k3, PS)",34%,–
